The target of one test is T1, huIL-27 (Homo sapiens, UniProt Q14213+Q8NEV9).
T1 sequence (Q14213 21-229): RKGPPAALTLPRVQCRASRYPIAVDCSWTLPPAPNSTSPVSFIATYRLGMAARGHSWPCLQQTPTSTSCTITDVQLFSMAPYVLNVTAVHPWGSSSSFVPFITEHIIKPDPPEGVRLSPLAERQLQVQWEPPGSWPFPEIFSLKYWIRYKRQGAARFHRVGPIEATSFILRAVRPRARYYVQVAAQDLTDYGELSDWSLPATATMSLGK
T1 sequence (Q8NEV9 29-243): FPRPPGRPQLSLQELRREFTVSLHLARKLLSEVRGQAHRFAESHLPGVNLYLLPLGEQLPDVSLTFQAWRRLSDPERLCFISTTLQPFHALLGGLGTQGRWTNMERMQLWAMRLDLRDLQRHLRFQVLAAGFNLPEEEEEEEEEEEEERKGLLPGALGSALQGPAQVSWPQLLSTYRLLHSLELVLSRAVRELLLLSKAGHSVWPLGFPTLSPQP
The test can be described thus: Phospho-STAT3 neutralization assay, total human PBMCs, huIL-27. Type of test: cell-based. As to conditions: Total Human PBMCs; ligand huIL-27 at EC90. An excerpt:
Whole mouse spleens were harvested from C57 B1/6 mice and washed two times with 1×PBS before being plated out at 2×10^5 cells/well in assay media (RPMI 1640 plus 10% fetal bovine serum) in 96-well, round-bottom tissue culture plates. Total human PBMC (peripheral blood mononuclear cells) were thawed from a frozen vial collected from a leukapherisis donation and washed two times with 1×PBS before being plated out at 10^6 cells/well in assay media in 96-well, round-bottom tissue culture plates. […] Following pre-incubation, treatments were added to the plates containing the cells and incubated together at 37° C. for 15 minutes.
Following incubation, cells were washed with ice-cold wash buffer (BIO-PLEX Cell Lysis Kit, BIO-RAD Laboratories, Hercules, Calif.) and put on ice to stop the reaction according to manufacturer's instructions. […]
Capture beads (BIO-PLEX Phospho-Stat3 Assay, BIO-RAD Laboratories) were combined with 50 μL of 1:1 diluted lysates and added to a 96-well filter plate according to manufacture's instructions (BIO-PLEX Phosphoprotein Detection Kit, BIO-RAD Laboratories). […] After the final wash, beads were resuspended in 125 μL/well of bead suspension buffer, shaken for 30 seconds, and read on an array reader (BIO-PLEX, BIO-RAD Laboratories) according to the manufacture's instructions. Data were analyzed using analytical softward (BIO-PLEX MANAGER 3.0, BIO-RAD Laboratories). […]

Another test has as its system P815 cells. The test can be described thus: CTL-specific lysis assay with splenocytes of GVHD mice. Format: cell-based, mouse. To be noted: splenocytes of treated animals versus PBS; calcein-labeled P815 targets. On the procedure: Efficacy of IL-27 antagonists was assayed in a mouse model of acute graft-vs-host disease (Durie et al., J. Clin. Invest. 94:1333-1338, 1994). Parental mice (C57BL/6; n=12) were euthanized, and their spleens were collected. The pooled spleens were smashed using two glass slides to dissociate splenic cells. Lysis buffer was added to the splenocyte suspension to remove red blood cells. The cells were washed in RPMI 1640 (10% FBS) medium and resuspended in an appropriate amount of PBS to make a cell concentration of 300 million cells/ml. Protein treatments were administered by intraperitoneal injection every other day beginning on day-1 and continuing until day 15. Dexamethasone (DEX) was administered by injection daily on days 0 through 6. […] Mice were monitored 3 times a week for changes in body weight and any signs of moribundity. […] Spleens were collected, and a CTL-specific lysis assay using P815 cells was performed as a quantitative measurement of acute GVHD. […]
For CTL assay, P815 cells (a tumor cell line from mice with the same MHC class as DBA2) were labeled with calcein, then splenocytes from each experimental animal were added to the calcein-labeled P815 cells at effector (splenocytes):target (P815) ratios of 100:1, 33:1, and 10:1. Four hours after incubation at 37° C., supernatants were collected and fluorescence was measured (485 nm/535 nm).

In test [1] the test system is serum IgG1, IgG2a, IgE and cytokines. The test is described as follows: Serum immunoglobulin and cytokine levels in acute GVHD model. Format: in vivo, mouse. As to conditions: serum level. On the procedure: Efficacy of IL-27 antagonists was assayed in a mouse model of acute graft-vs-host disease (Durie et al., J. Clin. Invest. 94:1333-1338, 1994). Parental mice (C57BL/6; n=12) were euthanized, and their spleens were collected. The pooled spleens were smashed using two glass slides to dissociate splenic cells. Lysis buffer was added to the splenocyte suspension to remove red blood cells. The cells were washed in RPMI 1640 (10% FBS) medium and resuspended in an appropriate amount of PBS to make a cell concentration of 300 million cells/ml. Protein treatments were administered by intraperitoneal injection every other day beginning on day-1 and continuing until day 15. Dexamethasone (DEX) was administered by injection daily on days 0 through 6. On day 0, 75 million donor splenic lymphocytes from B6 mice (250 .micro.l per injection) were injected intravenously into recipient mice (C57BL/6×DBA/2 F1 (BDF1); n=10 per group) mice. Mice were monitored 3 times a week for changes in body weight and any signs of moribundity. Mice that lost >20% of their initial body weight were euthanized. Otherwise, mice were sacrificed 18 days after the cell transfer. Spleens were collected, and a CTL-specific lysis assay using P815 cells was performed as a quantitative measurement of acute GVHD. Furthermore, spleens were stained for T- and B-cell markers, including MHC class I markers (H2^b and H2^d) to look at donor/recipient cell ratio (acute GVHD spleen cells are mostly donor cells). Sera were collected to measure serum level of IgG1, IgG2a, and IgE by ELISA, and cytokine and chemokine levels using a commercially available kit (Luminex Corporation, Austin, Tex.).

As to “human IL-27RA-Fc5: human IL27RA extracellular domain (amino acids 1 to 512 of SEQ ID NO:5) fused to Fc5, effector minus human gamma1 Fc; SEQ ID NO:3”, the IC50 (as a rule, the midpoint of a concentration-inhibition curve) with huIL-27 was found to be 950 pM. The CTL activity result in the test with P815 cells is recorded as “reduced CTL activity compared to PBS”. For the same substance, in test [1], the IL-2 entry is reported as “↑↑↑”, the IL-5 result is on record as “↑↑”, the IL-6 result was “↓↓↓” and the IgE result is given as “↑”. Further, in test [1], the IgG1 result is listed as “↑↑” and the IgG2A entry is “↑↑”.

Source of the values: patent US20100092465A1, “TREATMENT OF GRAFT-VERSUS-HOST DISEASE” (priority 2006, published 2010).
